In patent publication US20250313547A1, “CEREBLON LIGANDS AND BIFUNCTIONAL COMPOUNDS COMPRISING THE SAME” (Arvinas Operations, Inc., priority 2017, published 2025):

Target: T1, Estrogen receptor-alpha (ERα) (Homo sapiens (Human), UniProt P03372)
Test: ERα degradation assay in T47D cells
Assay type: cell-based
Settings: 5 day incubation, read-out: ER degradation DC50

T1 sequence (P03372 whole entry): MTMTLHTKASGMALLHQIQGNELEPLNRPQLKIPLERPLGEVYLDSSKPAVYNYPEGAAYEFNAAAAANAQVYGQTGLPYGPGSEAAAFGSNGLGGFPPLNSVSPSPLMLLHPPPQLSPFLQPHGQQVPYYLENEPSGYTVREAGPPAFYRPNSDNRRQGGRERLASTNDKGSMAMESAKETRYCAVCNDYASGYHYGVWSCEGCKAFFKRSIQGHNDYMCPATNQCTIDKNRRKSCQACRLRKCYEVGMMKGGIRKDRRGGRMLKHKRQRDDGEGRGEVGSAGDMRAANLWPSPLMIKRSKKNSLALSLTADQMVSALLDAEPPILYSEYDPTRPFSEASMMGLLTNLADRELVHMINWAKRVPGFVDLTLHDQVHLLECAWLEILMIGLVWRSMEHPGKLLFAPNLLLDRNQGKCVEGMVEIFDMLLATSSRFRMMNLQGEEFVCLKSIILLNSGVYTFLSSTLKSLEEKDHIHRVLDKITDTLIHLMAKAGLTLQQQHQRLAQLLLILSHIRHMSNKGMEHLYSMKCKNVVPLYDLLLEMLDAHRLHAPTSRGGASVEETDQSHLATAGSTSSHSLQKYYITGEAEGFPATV

Q: With CCN(C(=O)c1ccc(N2CCN(CCCCCOc3ccc([C@@H]4c5ccc(O)cc5CC[C@@H]4c4ccccc4)cc3)CC2)cc1OC)C1CCC(=O)NC1=O (mixture of isomers) [PROTAC-92, rac-N-(2,6-dioxopiperidin-3-yl)-N-ethyl-4-(4-(5-(4-((1R,2S)-6-hydroxy-2-phenyl-1,2,3,4-tetrahydronaphthalen-1-yl)phenoxy)pentyl)piperazin-1-yl)-2-methoxybenzamide] as the compound, how does the DC50 read?
A: ≥ 100 nM

Q: O=C1CCC(N2CC(Oc3cccc(C4CCN(CCCOc5ccc([C@@H]6c7ccc(O)cc7CC[C@@H]6c6ccccc6)cc5)CC4)c3)=CC2=O)C(=O)N1 (stereo partly drawn) [PROTAC-106, 3-(4-(3-(1-(3-(4-((1R,2S)-6-hydroxy-2-phenyl-1,2,3,4-tetrahydronaphthalen-1-yl)phenoxy)propyl)piperidin-4-yl)phenoxy)-2-oxo-2,5-dihydro-1H-pyrrol-1-yl)piperidine-2,6-dione] was tested. Which DC50 did it give?
A: 1 to 10 nM

Q: O=C1CCC(N2CC(Oc3cccc(C4CCN(CCCOc5ccc([C@H]6c7ccc(O)cc7CC[C@H]6c6ccccc6)cc5)CC4)c3)=CC2=O)C(=O)N1 (mixture of isomers) [PROTAC-105, rac-3-(4-(3-(1-(3-(4-((1R,2S)-6-hydroxy-2-phenyl-1,2,3,4-tetrahydronaphthalen-1-yl)phenoxy)propyl)piperidin-4-yl)phenoxy)-2-oxo-2,5-dihydro-1H-pyrrol-1-yl)piperidine-2,6-dione] was tested. Which DC50 did it give?
A: ≥ 100 nM

Q: With O=C1CCC(N2CC(Oc3cccc(C4CCN(CCCCOc5ccc([C@H]6c7ccc(O)cc7CC[C@H]6c6ccccc6)cc5)CC4)c3)=CC2=O)C(=O)N1 (mixture of isomers) [PROTAC-109, rac-3-(4-(3-(1-(4-(4-((1R,2S)-6-hydroxy-2-phenyl-1,2,3,4-tetrahydronaphthalen-1-yl)phenoxy)butyl)piperidin-4-yl)phenoxy)-2-oxo-2,5-dihydro-1H-pyrrol-1-yl)piperidine-2,6-dione] as the compound, how does the DC50 read?
A: ≥ 100 nM

Q: How did the DC50 turn out when O=C1CCC(N2CC(Oc3cccc(C4CCN(CCCCOc5ccc([C@@H]6c7ccc(O)cc7CC[C@@H]6c6ccccc6)cc5)CC4)c3)=CC2=O)C(=O)N1 (mixture of isomers) [PROTAC-104, rac-3-(4-(3-(1-(4-(4-((1R,2S)-6-hydroxy-2-phenyl-1,2,3,4-tetrahydronaphthalen-1-yl)phenoxy)butyl)piperidin-4-yl)phenoxy)-2-oxo-2,5-dihydro-1H-pyrrol-1-yl)piperidine-2,6-dione] was run?
A: ≥ 100 nM

Target: T1, Estrogen receptor-alpha (ERα)
Test: ERα degradation assay using In-Cell Western in MCF7 cells
Assay type: cell-based
Settings: 3 day incubation, read-out: ER degradation DC50
Method: 3. Estrogen Receptor-Alpha (ERα) Degradation Assay Using in-Cell Western™ Assay for Table 5.
Degradation of ERα by claimed compounds were determined in MCF7 cells using an In-Cell Western™ assay. Briefly, MCF7 cells were plated in 96-well plates (2000 cells per well in 100 μl media) and incubated at 37° C. under an atmosphere of 5% CO2 in a humidified incubator overnight. One-hundred (100) μl of media containing test compound (at 2× concentration) was added to the appropriate wells to provide 11 serially decreasing concentrations (top final concentration, 1 μM then 3-fold less for the next 10 concentrations); a vehicle control (DMSO) was also added for each compound. For each experiment, all compounds were assayed in duplicate plates. Cells were then incubated for 3 or 5 days in the above-mentioned environment. The assay was terminated by removal of media, a single wash with ice-cold PBS and the addition of 50 μl paraformaldehyde (PFA: 4% in PBS). After 15 minutes in PFA at room temperature, the cells were permeabilized in Tris-phosphate-buffered saline with Tween (0.1%) (TBST) supplemented with Triton X-100 (0.5%) for 15 minutes. Cells were then blocked in BSA (TBST with BSA, 3%) for one hour. […] The cells were incubated overnight at 4° C. The cells were then washed thrice with TBST at room temperature and then incubated with anti-rabbit and anti-mouse fluorescently-labelled secondary antibodies (IRDye®; LI-COR; Lincoln, NE) in LI-COR blocking buffer (Catalog #927-50000) for one hour at room temperature. Following 3 washes with TBST, the buffer was removed and the plates were read on an Odyssey® infrared imaging system (LI-COR®; Lincoln, NE) at 700 nm and 800 nm. Using commercial software (ImageStudio™; LI-COR, Lincoln, NE), the staining intensity for ERα and tubulin in each well was quantified and exported for analysis. For each data point, ERα intensity was normalized to tubulin intensity and for each compound all normalized intensity values were normalized to the vehicle control. DC50 and Dmax values were determined following a 4-parameter IC50 curve fit using ACAS dose response module (McNeil & Co Inc.).

Q: How did the DC50 turn out when Cc1nc2c(OCCN3CCN(CCOc4ccc(Oc5c(-c6ccc(Br)cc6)sc6cc(O)ccc56)cc4)CC3)cccc2c(=O)n1C1CCC(=O)NC1=O (centres unmarked) [PROTAC-108, 3-(8-(2-(4-(2-(4-((2-(4-bromophenyl)-6-hydroxybenzo[b]thiophen-3-yl)oxy)phenoxy)ethyl)piperazin-1-yl)ethoxy)-2-methyl-4-oxoquinazolin-3(4H)-yl)piperidine-2,6-dione] was run?
A: ≥ 100 nM

Q: With Cc1nc2c(NCCN3CCN(CCOc4ccc(Oc5c(-c6ccc(Br)cc6)sc6cc(O)ccc56)cc4)CC3)cccc2c(=O)n1C1CCC(=O)NC1=O (centres unmarked) [PROTAC-107, 3-(8-((2-(4-(2-(4-((2-(4-bromophenyl)-6-hydroxybenzo[b]thiophen-3-yl)oxy)phenoxy)ethyl)piperazin-1-yl)ethyl)amino)-2-methyl-4-oxoquinazolin-3(4H)-yl)piperidine-2,6-dione] as the compound, how does the DC50 read?
A: ≥ 100 nM

Same assay, conditions: 5 day incubation, read-out: ER degradation DC50

Q: For O=C1CCC(n2cnc(N3CCN(CCCCCOc4ccc([C@@H]5c6ccc(O)cc6CC[C@@H]5c5ccccc5)cc4)CC3)cc2=O)C(=O)N1 (mixture of isomers) [PROTAC-101, rac-3-(4-(4-(5-(4-((1R,2S)-6-hydroxy-2-phenyl-1,2,3,4-tetrahydronaphthalen-1-yl)phenoxy)pentyl)piperazin-1-yl)-6-oxopyrimidin-1(6H)-yl)piperidine-2,6-dione], which DC50 is on record?
A: 1 to 10 nM

Q: With O=C1CCC(NC(=O)c2ccc(N3CCN(CCCCCOc4ccc([C@@H]5c6ccc(O)cc6CC[C@@H]5c5ccccc5)cc4)CC3)cn2)C(=O)N1 (mixture of isomers) [PROTAC-91, rac-N-(2,6-dioxopiperidin-3-yl)-5-(4-(5-(4-((1R,2S)-6-hydroxy-2-phenyl-1,2,3,4-tetrahydronaphthalen-1-yl)phenoxy)pentyl)piperazin-1-yl)picolinamide] as the compound, how does the DC50 read?
A: 1 to 10 nM

Q: With CN(C(=O)c1ccc(N2CCN(CCCCCOc3ccc([C@@H]4c5ccc(O)cc5CC[C@@H]4c4ccccc4)cc3)CC2)cc1)C1CCC(=O)NC1=O (mixture of isomers) [PROTAC-90, rac-N-(2,6-dioxopiperidin-3-yl)-4-(4-(5-(4-((1R,2S)-6-hydroxy-2-phenyl-1,2,3,4-tetrahydronaphthalen-1-yl)phenoxy)pentyl)piperazin-1-yl)-N-methylbenzamide] as the compound, how does the DC50 read?
A: 1 to 10 nM

Q: Which DC50 does the source give for O=C1CCC(n2ncc(N3CCN(CCCCCOc4ccc([C@@H]5c6ccc(O)cc6CC[C@@H]5c5ccccc5)cc4)CC3)cc2=O)C(=O)N1 (mixture of isomers) [PROTAC-100, rac-3-(4-(4-(5-(4-((1R,2S)-6-hydroxy-2-phenyl-1,2,3,4-tetrahydronaphthalen-1-yl)phenoxy)pentyl)piperazin-1-yl)-6-oxopyridazin-1(6H)-yl)piperidine-2,6-dione] here?
A: 1 to 10 nM

Q: With O=C1CCC(n2cc(-c3ccc(N4CCN(CCCOc5ccc([C@@H]6c7ccc(O)cc7CC[C@@H]6c6ccccc6)cc5)CC4)cc3)cn2)C(=O)N1 (mixture of isomers) [PROTAC-110, rac-3-(4-(4-(4-(3-(4-((1R,2S)-6-hydroxy-2-phenyl-1,2,3,4-tetrahydronaphthalen-1-yl)phenoxy)propyl)piperazin-1-yl)phenyl)-1H-pyrazol-1-yl)piperidine-2,6-dione] as the compound, how does the DC50 read?
A: < 1 nM

Q: With O=C1CCC(n2ncc(N3CCN(CC4CCN(c5ccc([C@@H]6c7ccc(O)cc7CC[C@@H]6c6ccccc6)cc5)CC4)CC3)cc2=O)C(=O)N1 (stereo partly drawn) [PROTAC-102, 3-[4-[4-[[1-[4-[(1R,2S)-6-hydroxy-2-phenyl-tetralin-1-yl]phenyl]-4-piperidyl]methyl]piperazin-1-yl]-6-oxo-pyridazin-1-yl]piperidine-2,6-dione] as the compound, how does the DC50 read?
A: 1 to 10 nM

Q: For O=C1CCC(N2CC(c3ccc(N4CCN(CC5CCN(c6ccc([C@@H]7c8ccc(O)cc8CC[C@@H]7c7ccccc7)cc6)CC5)CC4)cc3)=CC2=O)C(=O)N1 (stereo partly drawn) [PROTAC-89, 3-[3-[4-[4-[[1-[4-[(1R,2S)-6-hydroxy-2-phenyl-tetralin-1-yl]phenyl]-4-piperidyl]methyl]piperazin-1-yl]phenyl]-5-oxo-2H-pyrrol-1-yl]piperidine-2,6-dione], which DC50 is on record?
A: 1 to 10 nM
